Tests used:
barnyardgrass [1] = assay: Test A preemergence; assay type: in vivo, Echinochloa crus-galli; details: for Plant response rating, Barnyardgrass: 0 to 100 scale where 0 is no effect and 100 is complete control
Outline: (§1)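 Scoring: eye-based comparison with untreated controls, 0 for no effect through 100 for complete control, at about day 10. Treatments: directed soil spray preemergence; foliar spray postemergence on 2–10 cm plants at the one- to two-leaf stage. Medium: loam soil with sand.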

kochia [2] = assay: Test A preemergence; assay type: in vivo, Kochia scoparia; details: for Plant response rating, Kochia: 0 to 100 scale where 0 is no effect and 100 is complete control
Outline: as §1

ragweed [3] = assay: Test A preemergence; assay type: in vivo, Ambrosia elatior; details: for Plant response rating, Ragweed: 0 to 100 scale where 0 is no effect and 100 is complete control
Outline: as §1

Italian ryegrass [4] = assay: Test A preemergence; assay type: in vivo, Lolium multiflorum; details: for Plant response rating, Ryegrass, Italian: 0 to 100 scale where 0 is no effect and 100 is complete control
Outline: as §1

giant foxtail [5] = assay: Test A preemergence; assay type: in vivo, Setaria faberii; details: for Plant response rating, Foxtail, Giant: 0 to 100 scale where 0 is no effect and 100 is complete control
Outline: as §1

pigweed [6] = assay: Test A preemergence; assay type: in vivo, Amaranthus retroflexus; details: for Plant response rating, Pigweed: 0 to 100 scale where 0 is no effect and 100 is complete control
Outline: as §1

barnyardgrass [7] = assay: Test A postemergence; assay type: in vivo, Echinochloa crus-galli
Outline: as §1

kochia [8] = assay: Test A postemergence; assay type: in vivo, Kochia scoparia
Outline: as §1

ragweed [9] = assay: Test A postemergence; assay type: in vivo, Ambrosia elatior
Outline: as §1

Italian ryegrass [10] = assay: Test A postemergence; assay type: in vivo, Lolium multiflorum
Outline: as §1

giant foxtail [11] = assay: Test A postemergence; assay type: in vivo, Setaria faberii
Outline: as §1

pigweed [12] = assay: Test A postemergence; assay type: in vivo, Amaranthus retroflexus
Outline: as §1

wheat = assay: Test A postemergence; assay type: in vivo, Triticum aestivum
Outline: as §1

corn = assay: Test A postemergence; assay type: in vivo, Zea mays
Outline: as §1

blackgrass = assay: Test A postemergence; assay type: in vivo, Alopecurus myosuroides
Outline: as §1

galium = assay: Test A postemergence; assay type: in vivo, Galium aparine
Outline: as §1

rice = assay: Test B flooded paddy test; assay type: in vivo, Oryza sativa; details: Flood, 250 g ai/ha; 0 to 100 scale where 0 is no effect and 100 is complete control
Outline: (§2)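 Seedlings are raised to two leaves, flooded to a depth of 3 cm and dosed by adding the compound to the floodwater. Water level is kept constant, and plants are scored visually versus controls 13–15 days later (0 = no effect, 100 = complete control).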

sedge, umbrella = assay: Test B flooded paddy test; assay type: in vivo, Cyperus difformis; details: Flood, 250 g ai/ha; 0 to 100 scale where 0 is no effect and 100 is complete control
Outline: as §2

Heteranthera limosa = assay: Test B flooded paddy test; assay type: in vivo; details: Flood, 250 g ai/ha; 0 to 100 scale where 0 is no effect and 100 is complete control
Outline: as §2

barnyardgrass [13] = assay: Test B flooded paddy test; assay type: in vivo, Echinochloa crus-galli; details: Flood, 250 g ai/ha; 0 to 100 scale where 0 is no effect and 100 is complete control
Outline: as §2

[14] = 31 g ai/ha, visual, approximately 10 days
[15] = 31 g ai/ha, 0 to 100 scale, 0 no effect, 100 complete control
[16] = 125 g ai/ha, 0 to 100 scale, 0 no effect, 100 complete control
[17] = 500 g ai/ha, 0 to 100 scale, 0 no effect, 100 complete control, approx. 10 days
[18] = 125 g ai/ha, 0 to 100 scale where 0 is no effect and 100 is complete control
[19] = 500 g ai/ha, 0 to 100 scale where 0 is no effect and 100 is complete control

**Q.** Which results are given for `Fc1cnc(Oc2ccccc2-n2cc(OCC(F)(F)F)cn2)nc1` [Compound 241]?
**A.** Plant response rating, Barnyardgrass (barnyardgrass [1]; [14]): 10; Barnyardgrass plant response rating (0 to 100 scale, 0 is no effect, 100 is complete control) (barnyardgrass [1]; 125 g ai/ha): 60; Plant response rating, Kochia (kochia [2]; [14]): 50; Kochia plant response rating (0 to 100 scale) (kochia [2]; 125 g ai/ha): 100; Plant response rating, Ragweed (ragweed [3]; [14]): 0; Ragweed plant response rating (0 to 100 scale) (ragweed [3]; 125 g ai/ha): 40; Plant response rating, Ryegrass, Italian (Italian ryegrass [4]; [14]): 0; Ryegrass, Italian plant response rating (0 to 100 scale) (Italian ryegrass [4]; 125 g ai/ha): 0; Plant response rating, Foxtail, Giant (giant foxtail [5]; [14]): 50; Foxtail, Giant plant response rating (0 to 100 scale) (giant foxtail [5]; 125 g ai/ha): 100; Plant response rating, Pigweed (pigweed [6]; [14]): 80; Pigweed plant response rating (0 to 100 scale) (pigweed [6]; 125 g ai/ha): 100; Plant response rating, Barnyardgrass (barnyardgrass [7]; [15]): 0; Plant response rating, Barnyardgrass (barnyardgrass [7]; [16]): 10; Plant response rating, Kochia (kochia [8]; [15]): 50; Plant response rating, Kochia (kochia [8]; [16]): 90; Plant response rating, Ragweed (ragweed [9]; [15]): 10; Plant response rating, Ragweed (ragweed [9]; [16]): 30; Plant response rating, Ryegrass, Italian (Italian ryegrass [10]; [15]): 0; Plant response rating, Ryegrass, Italian (Italian ryegrass [10]; [16]): 0; Plant response rating, Foxtail, Giant (giant foxtail [11]; [15]): 0; Plant response rating, Foxtail, Giant (giant foxtail [11]; [16]): 20; Plant response rating, Pigweed (pigweed [12]; [15]): 40; Plant response rating, Pigweed (pigweed [12]; [16]): 80; Plant response rating, Wheat (wheat; [15]): 0; Plant response rating, Wheat (wheat; [16]): 10; Plant response rating, Corn (corn; [15]): 0; Plant response rating, Corn (corn; [16]): 10; Plant response rating, Blackgrass (blackgrass; [15]): 0; Plant response rating, Blackgrass (blackgrass; [16]): 20; Plant response rating, Galium (galium; [15]): 40; Plant response rating, Galium (galium; [16]): 60; Plant response rating, Rice (rice): 0; Plant response rating, Sedge, Umbrella (sedge, umbrella): 0; Plant response rating, Ducksalad (Heteranthera limosa): 40; Plant response rating, Barnyardgrass (barnyardgrass [13]): 0

**Q.** What does the source list for `N#Cc1cnn(-c2c(C#N)cccc2Oc2ncc(I)cn2)c1` [Compound 91]?
**A.** Plant response rating, Barnyardgrass (barnyardgrass [1]; 125 g ai/ha): 0; Barnyardgrass plant response rating (barnyardgrass [1]; [17]): 0; Plant response rating, Kochia (kochia [2]; 125 g ai/ha): 30; Kochia plant response rating (kochia [2]; [17]): 90; Plant response rating, Ragweed (ragweed [3]; 125 g ai/ha): 0; Ragweed plant response rating (ragweed [3]; [17]): 0; Plant response rating, Ryegrass, Italian (Italian ryegrass [4]; 125 g ai/ha): 0; Ryegrass, Italian plant response rating (Italian ryegrass [4]; [17]): 30; Plant response rating, Foxtail, Giant (giant foxtail [5]; 125 g ai/ha): 10; Foxtail, Giant plant response rating (giant foxtail [5]; [17]): 30; Plant response rating, Pigweed (pigweed [6]; 125 g ai/ha): 70; Pigweed plant response rating (pigweed [6]; [17]): 90; Plant response rating, Barnyardgrass (barnyardgrass [7]; [18]): 0; Plant response rating, Barnyardgrass (barnyardgrass [7]; [19]): 10; Plant response rating, Kochia (kochia [8]; [18]): 10; Plant response rating, Kochia (kochia [8]; [19]): 30; Plant response rating, Ragweed (ragweed [9]; [18]): 10; Plant response rating, Ragweed (ragweed [9]; [19]): 30; Plant response rating, Ryegrass, Italian (Italian ryegrass [10]; [18]): 0; Plant response rating, Ryegrass, Italian (Italian ryegrass [10]; [19]): 0; Plant response rating, Foxtail, Giant (giant foxtail [11]; [18]): 10; Plant response rating, Foxtail, Giant (giant foxtail [11]; [19]): 10; Plant response rating, Pigweed (pigweed [12]; [18]): 10; Plant response rating, Pigweed (pigweed [12]; [19]): 50; Plant response rating, Wheat (wheat; [18]): 0; Plant response rating, Wheat (wheat; [19]): 10; Plant response rating, Corn (corn; [18]): 0; Plant response rating, Corn (corn; [19]): 0; Plant response rating, Blackgrass (blackgrass; [18]): 0; Plant response rating, Blackgrass (blackgrass; [19]): 30; Plant response rating, Galium (galium; [18]): 40; Plant response rating, Galium (galium; [19]): 70; Plant response rating, Rice (rice): 0; Plant response rating, Sedge, Umbrella (sedge, umbrella): 0; Plant response rating, Ducksalad (Heteranthera limosa): 0; Plant response rating, Barnyardgrass (barnyardgrass [13]): 0
